Experimental data taken from patent US8697728B2, “Perhexiline for use in the treatment of hypertrophic cardiomyopathy (HCM)” (The University of Birmingham, priority 2009, dated 2014).

Assays:
[1] = system: symptomatic HCM patients; test: Cardiopulmonary exercise test (peak oxygen consumption), randomized double-blind placebo-controlled study; assay type: in vivo, human; conditions: p=0.003 vs placebo
Description: (§1) The study was approved by the South Birmingham Research Ethics Committee and the investigation conforms with the principles outlined in the Declaration of Helsinki. All study participants provided written informed consent. The study was a randomized, double blind, placebo-controlled parallel-group design of minimum 3 months duration. FIG. 1 represents a flow chart of the study. The pre-defined primary end point was peak oxygen consumption (peak VO2). Pre-defined secondary end points were symptomatic status, resting myocardial energetics (PCr/γ-ATP ratio) and diastolic function at rest and during exercise (nTTPF). 33 controls of similar age and gender distribution were recruited for comparison with baseline data of HCM patients. […]
Following baseline studies, patients were randomized in a double-blind fashion to receive either perhexiline (n=25) or placebo (n=21) 100 mg OD. […] At the end of study, patients were re-evaluated as described earlier.
Data were analyzed using SPSS ver. 15.0 for Window and Microsoft Office Excel 2007, and expressed as Mean±Standard Deviation (SD). Comparison of continuous variables between Perhexiline and Placebo baseline data were determined by unpaired Student's t-test (2-tail) if variables were normally distributed and the Mann-Whitney U-test if the data were non-normally distributed. […]

[2] = system: symptomatic HCM patients; test: Radionuclide ventriculography (diastolic ventricular filling, nTTPF); assay type: in vivo, human; conditions: perhexiline group, p=0.03 vs placebo response
Description: as §1, with “(nTTPF).” for “(nTTPF). 33 controls of similar age and gender distribution were recruited for comparison with baseline data of HCM patients.”
Diastolic filling were assessed by equilibrium R-wave gated blood pool scintigraphy using a standard technique at rest and during graded semi erect exercise on a cycle ergometer (Atherton J J, Moore T D, Lele S S et al. Diastolic ventricular interaction in chronic heart failure. Lancet 1997;349 (9067):1720-1724; Lele S S, Macfarlane D, Morrison S, Thomson H, Khafagi F, Frenneaux M. Determinants of exercise capacity in patients with coronary artery disease and mild to moderate systolic dysfunction. Role of heart rate and diastolic filling abnormalities. Eur Heart J 1996;17(2):204-212). […]
Data were analyzed using SPSS ver. 15.0 for Window and Microsoft Office Excel 2007, and expressed as Mean±Standard Deviation (SD). […]

[3] = system: symptomatic HCM patients; test: Side effects and deaths during the study; assay type: in vivo; conditions: perhexiline group (n=25), during the first week of treatment
Description: The study was a randomized, double blind, placebo-controlled parallel-group design of minimum 3 months duration. […] The pre-defined primary end point was peak oxygen consumption (peak VO2). Pre-defined secondary end points were symptomatic status, resting myocardial energetics (PCr/γ-ATP ratio) and diastolic function at rest and during exercise (nTTPF).
Diabetic patients were also excluded to maintain the blindness of the study as Perhexiline may lead to a reduction in plasma glucose in such patients necessitating a reduction in anti-diabetic therapy. 46 consecutive consenting patients who met these entry criteria were recruited into the study.
Following baseline studies, patients were randomized in a double-blind fashion to receive either perhexiline (n=25) or placebo (n=21) 100 mg OD. Serum perhexiline levels were obtained at 1 and 4 weeks after initiation of the drug. Dose adjustments were advised by an unblinded physician according to serum level to achieve therapeutic level and to avoid drug toxicity. Identical dosage adjustments were also made for randomly allocated placebo-treated patients by the unblinded observer to ensure that blinding of the investigators was maintained. At the end of study, patients were re-evaluated as described earlier.

SMILES: C1CCC(C(CC2CCCCN2)C2CCCCC2)CC1 (centres unmarked) [perhexiline, 2-(2,2-dicyclohexylethyl) piperidine]
- Effect on peak oxygen consumption (peak VO2, exercise capacity), in words ([1]; FIG. 3A legend): increases
- Change in Peak VO2 after treatment (increase) ([1]; HCM patients, perhexiline group, after treatment vs baseline): 2.09 mL/min/kg
- εnTTPF (change of nTTPF from rest to exercise) on therapy [2]: 0.00 ± 0.003 s
- Side effect: dizziness (number of patients) [3]: 2
- Side effect: transient nausea (number of patients) [3]: 3
